Experimental data as given in patent publication US5264441A, “Disubstituted ureas and thioureas derivatives” (Farmitalia Carlo Erba S.r.l., priority 1991, dated 1993).

Assays:
[1] = molecular target: T1, acyl CoA:cholesterol acyltransferase (ACAT-EC 2.3.1.26) (Oryctolagus cuniculus, UniProt A0A5F9CPP4); assay: Inhibition of ACAT activity in microsomal preparations from atherosclerotic rabbit thoracic aorta; assay type: biochemical; conditions: microsomes from atherosclerotic rabbit thoracic aorta; read-out: IC50 values for the inhibition activity in microsomes from atherosclerotic rabbit thoracic aortae
T1 construct: microsomal preparations from atherosclerotic rabbit thoracic aorta; from tissue; host or cells: microsomes of atherosclerotic rabbit thoracic aorta
T1 sequence (A0A5F9CPP4 1-555): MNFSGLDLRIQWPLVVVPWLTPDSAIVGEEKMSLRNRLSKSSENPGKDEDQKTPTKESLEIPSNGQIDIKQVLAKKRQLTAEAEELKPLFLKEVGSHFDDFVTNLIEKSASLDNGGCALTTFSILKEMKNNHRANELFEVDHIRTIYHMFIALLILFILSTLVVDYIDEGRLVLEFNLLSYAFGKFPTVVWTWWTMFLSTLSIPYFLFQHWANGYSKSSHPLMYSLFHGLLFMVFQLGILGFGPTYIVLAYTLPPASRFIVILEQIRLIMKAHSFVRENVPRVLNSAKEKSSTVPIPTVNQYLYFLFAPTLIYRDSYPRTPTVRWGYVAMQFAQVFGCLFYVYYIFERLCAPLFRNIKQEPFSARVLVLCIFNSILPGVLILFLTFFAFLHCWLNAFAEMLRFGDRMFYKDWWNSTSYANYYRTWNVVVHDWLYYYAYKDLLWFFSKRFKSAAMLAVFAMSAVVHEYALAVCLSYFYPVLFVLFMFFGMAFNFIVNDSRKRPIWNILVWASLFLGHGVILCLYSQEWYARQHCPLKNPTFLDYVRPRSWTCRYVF

[2] = Hypolipidaemic effect in New Zealand White rabbits fed a 1% cholesterol-enriched diet for 30 days; assay type: in vivo; conditions: compound added to the diet; for ED50: Oryctolagus cuniculus, 720 h
[3] = Hypolipidaemic activity in Sprague-Dawley rats fed a 1.5% cholesterol-enriched diet for a week; assay type: in vivo; conditions: Rattus norvegicus, 168 h, 1.5% cholesterol-enriched chow for a week, compound added to the diet
[4] = as above; assay type: in vivo; conditions: for Blood Total Cholesterol, Treating, Mean ± SE / Blood Total Cholesterol, % Change: 1 mg/kg/day, rats fed […] cholesterol-enriched diet for a week; for Blood Total Cholesterol, Treating, Mean ± SE: n = 9, * p ≤ 0.01 (Dunnett's test); for Blood Total Cholesterol, % Change: treating vs control
Protocol: Moreover, the compounds of the invention are useful as antidyslipidaemic agents, indeed they show a high activity in lowering total serum cholesterol and triglycerides. […] Table II exemplifies the results obtained by testing the hypolipidaemic activity of a representative group of compounds of the invention administered at the dose of 1 mg/kg/day to Sprague-Dawley rats fed 1.5% cholesterol-enriched diet for a week.
Hypocholesterolaemic activity of FCE compounds given at
1 mg/kg/day to rats fed 1.5% cholesterol-enriched diet

[5] = Liver cholesterol accumulation in albino mice fed a 1.5% cholesterol-enriched diet for seven hours; assay type: in vivo; conditions: acute oral dose of 10 mg/kg
[6] = liver, read-out: ED50 for the cholesterol lowering effect in liver
[7] = plasma, read-out: ED50 for the cholesterol lowering effect in plasma

SMILES	IC50 [1] [nM]	Blood Total Cholesterol, Treating, Mean ± SE [4] [mg/dL]	Blood Total Cholesterol, % Change [4] [%]	further results
CCOC(CNC(=O)Nc1c(C(C)C)cccc1C(C)C)(OCC)c1ccccc1 [FCE 27020, N-[2,6-bis(1-methylethyl)phenyl]-N'-(2,2-diethoxy-2-phenyl) ethylurea]	7.47			
CC(C)c1cccc(C(C)C)c1NC(=O)NCC1(c2ccccc2)OC(C)C(C)O1 (stereo not drawn) [FCE 27050, N-[2,6-bis(1-methylethyl)phenyl]-N'-[(2RS,4RS,5RS)-4,5-dimethyl-2-phenyldioxolan-2-yl]methylurea]		62 ± 5	-60	ED50 [2, 6]: 0.16 mg/kg; ED50 [2, 7]: 0.19 mg/kg; accumulation of cholesterol in the liver [2]: prevented the accumulation of cholesterol in the liver; hypolipidaemic effect [2]: potent hypolipidaemic effect; ED50 [3, 6]: 0.51 mg/kg; ED50 [3, 7]: 0.83 mg/kg; hypolipidaemic effect ([4]; Sprague-Dawley rats, […] cholesterol-enriched chow for a week, compound added to the diet): remarkable hypolipidaemic effect; accumulation of cholesterol in the liver [5]: prevented in a significative fashion the accumulation of cholesterol in the liver
CC(C)c1cccc(C(C)C)c1NC(=O)NCC1(C2CCCCC2)OCC(C)(C)CO1 [FCE 27356, N-[2,6-bis(1-methylethyl)phenyl]-N'-(2-cyclohexyl-5,5-dimethyl-1,3-dioxan-2-yl)methylurea]	6.5			
CC(C)c1cccc(C(C)C)c1NC(=O)NCC1(C2CCCCC2)O[C@@H](C)[C@H](C)O1 [FCE 27480, N-[2,6-bis(1-methylethyl)phenyl]-N'-[(4S, 5S)-2-cyclohexyl-4,5-dimethyldioxolan-2-yl]methylurea]		85 ± 9	-46	
CC(C)c1cccc(C(C)C)c1NC(=O)NCC1(c2ccccc2)O[C@H](C)[C@@H](C)O1 [FCE 27529, N-[2,6-bis(1-methylethyl)phenyl]-N'-[(4R,5R)-4,5-dimethyl-2-phenyldioxolan-2-yl]methylurea]		75 ± 4	-62	
CC(C)c1cccc(C(C)C)c1NC(=O)NCC1(c2ccc(N(C)C)cc2)OCC(C)(C)CO1 [FCE 27607, N-[2,6-bis(1-methylethyl)phenyl]-N'-[2-(4-dimethylaminophenyl)-5,5-dimethyl-1,3-dioxan-2-yl]methylurea]		110 ± 8	-48	
CC(C)c1cccc(C(C)C)c1NC(=O)NCC1(C2CCCCC2)SCCS1 [FCE 27612, N-[2,6-bis(1-methylethyl)phenyl]-N'-(2-cyclohexyl-1,3-dithiolan-2-yl)methylurea]	9.5	59 ± 7	-72	
